From patent US20120225123A1, “Use of Synergistic Combinations of an Avermectin and an Antineoplastic Compounds for the Treatment of Hematological Malignancies” (UNIVERSITY HEALTH NETWORK, priority 2009, published 2012)

Tests used:
Type in all cases: cell-based, human
[1] = tested on: OCI-AML2, HL60, and KG1a leukemia cell lines; assay: Chemical screen for cytotoxic compounds, MTS assay; settings: 72 hours, all cell lines in the screen, read-out: EC50, reduced cell viability
Protocol: HL60, KG1a, and OCI-AML2 leukemia cells were seeded into 96-well polystyrene tissue culture plates (Nunc). After seeding, cells were treated with aliquots of the chemical library (=100) at increasing concentrations (3 to 50 μM) with a final DMSO concentration of 0.5%. Seventy two hours after incubation, cell growth and viability was measured by the MTS assay. Liquid handling was performed by a Biomek FX Laboratory Automated Workstation (Beckman Coulter Fullerton, Calif.).
(§1) Cell growth and viability was assessed by the MTS assay (Promega, Madison, Wis.) according to the manufacturer's instructions and as previously described.^12 Cell death was measured by Annexin V-fluoroscein isothiocyanate (FITC) and Propidium Iodide (PI; Biovision Research Products, Mountain View, Calif.) staining and flow cytometry according to the manufacturer's instructions and as previously described.^13 To identify CD34+ cells, a normal PBSC sample was co-stained with PE-anti-CD34+ (Beckman Coulter, Marseille France), and APC-anti-CD45 (Becton Dickenson, San Jose Calif.).
A small chemical library (n=100) focused on anti-microbials and metabolic regulators with wide therapeutic windows and well understood pharmacokinetics was compiled. […] Seventy two hours after incubation, cell growth and viability was measured by the MTS assay. […]

OCI-AML2 cells [2] = assay: Cell death, viability and cell cycle in OCI-AML2 cells
Protocol: as §1
Cell cycle analysis was performed as described previously.^15 Briefly, cells were harvested, washed with cold PBS, and resuspended in 80% cold ethanol. Cells were then treated with 100 ng/mL DNase-free RNase A (Invitrogen) at 37° C. for 30 min, washed with cold PBS, and resuspended in PBS with 50 μg/mL propidium iodide. DNA content was analyzed by flow cytometry (FACSCalibur; Becton Dickinson). The percentage of cells in each phase of the cell cycle was calculated with FlowJo version 8.8 (TreeStar, Ashland, Oreg.).

[3] = tested on: DU145 prostate cancer cells; assay: Cell death by Annexin V and PI staining in DU145 cells; settings: 24 hours
Protocol: as §1

OCI-AML2 cells [4] = assay: Plasma membrane potential, DiBAC4(3) staining, OCI-AML2; settings: for plasma membrane polarization: 5 hours
Protocol: (§2) Plasma membrane potential was measured as previously described.^18 Briefly, cells treated with IVM or buffer control in RPM1, chloride replete medium (140 mM sodium chloride, 5 mM potassium chloride, 1 mM magnesium sulfate, 1.8 mM calcium acetate, 10 mM glucose, 10 mM HEPES and 0.1% (wt/v) BSA), or chloride free media where equimolar gluconate salts of sodium and potassium replaced the sodium chloride in the chloride replete medium. After incubation, cells were stained with DiBAC4(3) (final concentration 30 nM) and fluorescence determined by flow cytometry (BD FACS Canto, Becton Dickinson, San Jose, Calif.) (excitation=488 nm, emission=516 nm) Analysis was conducted using FACSDiva Software (BD Biosciences). Calibration curves were prepared using phosphate buffers with varying potassium ion concentrations as previously described.^18

[5] = tested on: U937 and TEX leukemia cells as well as primary AML cells; assay: Plasma membrane potential, DiBAC4(3) staining, sensitive cells; settings: after ivermectin treatment
Protocol: as §2
(§3) In nematodes, increases in intracellular chloride after IVM treatment cause membrane hyperpolarization. Therefore, the effects of IVM on plasma and mitochondrial membrane polarization was evaluated in leukemia cells. […] At increasing times after incubation, plasma membrane potential was measured by staining cells with DiBAC4(3) and flow cytometric analysis.

[6] = tested on: DU145 and PPC-1 cells as well as primary normal hematopoietic cells; assay: Plasma membrane potential, DiBAC4(3) staining, resistant cells; settings: up to 6 μM for up to 24 hours
Protocol: as §2, §3

OCI-AML2 cells [7] = assay: Reactive oxygen species, Carboxy-H2DCFDA staining, OCI-AML2; settings: increasing concentrations, flow cytometry
Protocol: Data were analyzed with FlowJo version 8.8 (TreeStar, Ashland, Oreg.).

[8] = tested on: STAT1 and target genes IFIT3, OAS1 and TRIM22 in OCI-AML2 cells; assay: Gene expression by Q-RT-PCR, OCI-AML2; settings: after ivermectin treatment, Q-RT-PCR
Protocol: Leukemia cells were treated with buffer control or ivermectin (3 μM) for 30 and 40 hours. After treatment, cells were harvested, total RNA was isolated. Total RNA (10 μg) was used for cRNA amplification using the Invitrogen SuperScript kit (Life Technologies, Inc., Burlington, ON, Canada). Amplification and biotin labeling of antisense cRNA was performed using the Enzo® BioArray™ High Yield™ RNA transcript labeling kit (Enzo Diagnostics, Farmingdale, N.Y., USA), according to the manufacturer's instructions. RNA was then hybridized to Affymetrix HG U133 Plus 2.0 gene expression oligonucleotide arrays (Affymetrix, Santa Clara, Calif., USA). Microarray slides were scanned using the GeneArray 2500 scanner (Agilent Technologies). Microarray data were analyzed using GeneSpring GX v10.0 (Agilent), and lists of genes deregulated>2-fold after 30 and 40 hr ivermectin treatment were derived. Pathways and gene ontology analyses were carried out using Ingenuity Pathways Analysis (www.ingenuity.com); and the Database for Annotation, Visualization and Integrated Discovery (DAVID; http://david.abcc.ncifcrf.gov). […]
Gene expression changes were evaluated in OCI AML2, 0937, HL60, DU145 and PPC-1 cells by real-time Q-RT-PCRas described previously^15, 47. The expression level of STAT1A, STAT1B, TRIM22, OAS1 and IFIT3 before and after incubation of leukemia cells with ivermectin was evaluated.

What does the source list for ivermectin?
EC50 [1]: < 10 µM; cell death (OCI-AML2 cells [2]; 24 hours of treatment): induced cell death; cell cycle (OCI-AML2 cells [2]; times and concentrations that preceded cell death, PI DNA content): induced G2 cell cycle arrest; sensitivity to IVM induced cell death [3]: more resistant to IVM induced cell death; plasma membrane polarization (OCI-AML2 cells [4]; chloride deplete buffer): caused plasma membrane depolarization; plasma membrane polarization (OCI-AML2 cells [4]; chloride replete buffer): induced plasma membrane hyperpolarization; plasma membrane potential (OCI-AML2 cells [4]; RPMI medium, as early as after 1 hour of treatment): induced membrane hyperpolarization in a dose dependent manner; plasma membrane potential [5]: demonstrated plasma membrane hyperpolarization; plasma membrane potential [6]: did not show changes in their plasma membrane potential; ROS production (OCI-AML2 cells [7]): increased ROS production; expression of STAT1 and target genes [8]: upregulation of STAT1 and target genes IFIT3, OAS1 and TRIM22
